The values that follow come from patent publication US20240279220A1, “INDOLE COMPOUNDS AND METHODS OF USE” (Genzyme Corporation, priority 2021, published 2024).

Structures are written as SMILES.

One assay concerns NBD1/3D. In words: Aggregation analysis using differential static light scattering (DSLS), NBD1 thermal stability. As to conditions: ΔTagg versus DMSO control; compound at 100 μM. Format: binding, Human. An outline of the steps:
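Purified NBD1 at 0.2 mg/ml in S200 buffer (pH 7.6, 2 mM ATP, 5 mM MgCl2, 1% glycerol) was heated with compound at 1 °C/min to 70 °C. Tagg taken from the light-scattering curve inflection point; ΔTagg = compound Tagg minus mean DMSO control Tagg.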

The next assay addresses T1, CFTR (Homo sapiens, UniProt P13569, DEL508-508).
T1 construct: Primary human bronchial epithelial cells from a ΔF508 homozygous CF donor; host or cells: primary human bronchial epithelial cells (CF-HBE), ΔF508 homozygous donor
In words: TECC24 recording of CFTR-mediated transepithelial chloride transport in ΔF508 homozygous CF-HBE cells. The note with it: 10 μM test agent, 48 hours incubation, AUC of forskolin-stimulated IEQ divided by vehicle AUC, primary CF-HBE cells. It is filed as cell-based. The protocol: The effects of a test agent on CFTR-mediated transepithelial chloride transport was measured using TECC24 recording analysis. Test agents were solubilized in DMSO. Solubilized test agents were mixed with incubation medium containing DMEM/F12, Ultroser G (2%; Crescent Chemical, catalog #67042), Hyclone Fetal Clone II (2%; GE Healthcare, catalog #SH30066.02), bovine brain extract (0.25%; Lonza, catalog #CC-4098), insulin (2.5 μg/mL), IL-13 (10 ng/mL), hydrocortisone (20 nM), transferrin (2.5 μg/mL), triiodothyronine (500 nM), ethanolamine (250 nM), epinephrine (1.5 μM), phosphoethanolamine (250 nM), and retinoic acid (10 nM). Primary human bronchial epithelial cells from a ΔF508 homozygous CF donor (CF-HBE cells; from University of North Carolina Cystic Fibrosis Tissue Procurement Center), grown on Transwell HTS 24-well cell culture inserts (Costar, catalog #3378), were exposed to test agents or controls dissolved in incubation medium. The CF-HBE cells were cultured at 36.5° C. for 48 hours before TECC24 recordings were performed in the presence or absence of test agent, a positive control or vehicle (DMSO).
Following incubation, the transwell cell culture inserts containing the test agent or control-treated CF-HBE cells were loaded onto a TECC24 apparatus (TECC v7 or MTECC v2; EP Design) to record the transepithelial voltage (VT) and resistance (TEER) using 4 AgCl electrodes per well configured in current-clamp mode. The apical and basolateral bath solutions both contained (in mM) 140 NaCl, 5 KCl, 2 CaCl2, 1 MgCl2, 10 Hepes, and 10 glucose (adjusted to pH 7.4 with NaOH). To inhibit basal Na+ absorption, the ENaC inhibitor benzamil (10 μM) was added to the bath. Then, the adenylate cyclase activator, forskolin (10 μM), was added to the bath to activate CFTR. The forskolin-stimulated Cl— transport was halted by addition of CFTR inhibitor-172 (20 μM) to the bath at the end of the experiment to confirm specificity. VT and TEER recordings were digitally acquired at routine intervals using TECC or MTECC software (EP Design). VT and TEER were transformed into equivalent transpeithelial Cl— current (IEQ), and the Area Under the Curve (AUC) of the IEQ timecourse between forskolin and CFTR inhibitor-172 addition is generated using Excel (Microsoft). Efficacy is expressed as the ratio of the test agent AUC divided by vehicle AUC. EC50s based on AUC are generated using the non-linear regression log(agonist) vs. response function in Prism software (Graphpad) with HillSlope fixed=1.
If a test agent increased the AUC of the forskolin-stimulated IEQ relative to vehicle in CF-HBE cells, and this increase was inhibited by CFTR inhibitor-172, then the test agent was considered a CFTR corrector.

T1 sequence (P13569 with tags, fused parts or gaps DEL508-508): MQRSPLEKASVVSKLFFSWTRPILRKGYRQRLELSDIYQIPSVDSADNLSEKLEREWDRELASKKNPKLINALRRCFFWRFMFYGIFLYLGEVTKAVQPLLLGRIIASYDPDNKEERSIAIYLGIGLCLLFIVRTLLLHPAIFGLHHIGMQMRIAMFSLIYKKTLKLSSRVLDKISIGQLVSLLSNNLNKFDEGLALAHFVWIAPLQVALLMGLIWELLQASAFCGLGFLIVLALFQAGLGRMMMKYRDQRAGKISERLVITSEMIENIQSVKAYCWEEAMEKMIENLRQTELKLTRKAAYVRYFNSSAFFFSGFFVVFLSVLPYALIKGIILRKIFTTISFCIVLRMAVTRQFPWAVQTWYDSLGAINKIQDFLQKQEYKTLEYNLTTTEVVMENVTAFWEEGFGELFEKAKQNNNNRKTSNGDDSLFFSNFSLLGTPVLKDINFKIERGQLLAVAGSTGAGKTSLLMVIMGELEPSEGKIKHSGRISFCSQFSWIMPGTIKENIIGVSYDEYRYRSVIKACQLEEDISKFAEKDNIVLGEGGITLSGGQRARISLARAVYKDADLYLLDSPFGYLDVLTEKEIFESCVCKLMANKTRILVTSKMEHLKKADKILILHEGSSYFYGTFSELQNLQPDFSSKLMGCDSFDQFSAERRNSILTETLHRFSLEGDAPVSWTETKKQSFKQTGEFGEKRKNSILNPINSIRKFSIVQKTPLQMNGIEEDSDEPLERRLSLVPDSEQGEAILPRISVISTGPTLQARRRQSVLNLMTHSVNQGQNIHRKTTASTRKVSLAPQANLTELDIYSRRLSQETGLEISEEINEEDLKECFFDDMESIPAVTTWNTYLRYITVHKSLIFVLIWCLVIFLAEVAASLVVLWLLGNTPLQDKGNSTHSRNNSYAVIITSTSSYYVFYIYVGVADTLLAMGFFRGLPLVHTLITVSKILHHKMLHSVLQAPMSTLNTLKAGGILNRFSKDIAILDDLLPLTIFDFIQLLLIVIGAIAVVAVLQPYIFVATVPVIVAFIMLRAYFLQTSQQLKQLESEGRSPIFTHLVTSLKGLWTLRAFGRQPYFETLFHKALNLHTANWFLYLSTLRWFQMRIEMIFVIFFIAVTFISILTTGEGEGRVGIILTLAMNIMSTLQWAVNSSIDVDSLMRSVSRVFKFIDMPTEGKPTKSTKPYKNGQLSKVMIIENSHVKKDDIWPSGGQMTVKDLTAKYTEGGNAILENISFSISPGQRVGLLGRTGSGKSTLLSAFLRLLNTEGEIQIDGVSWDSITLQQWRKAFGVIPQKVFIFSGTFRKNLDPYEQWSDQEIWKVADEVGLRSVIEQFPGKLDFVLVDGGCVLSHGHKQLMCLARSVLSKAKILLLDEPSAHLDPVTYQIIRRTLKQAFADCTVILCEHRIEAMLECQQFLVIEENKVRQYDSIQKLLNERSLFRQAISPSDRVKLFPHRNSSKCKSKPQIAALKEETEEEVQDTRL

Regarding `Cc1c(Oc2ccc(F)c(-c3ncc(C(C)(O)c4cccc(CCC(=O)O)n4)[nH]3)c2)c(F)cc2[nH]ccc12` (centres unmarked) [Example 272, 3-(6-(1-(2-(2-fluoro-5-((6-fluoro-4-methyl-1H-indol-5-yl)oxy)phenyl)-1H-imidazol-5-yl)-1-hydroxyethyl)pyridin-2-yl)propanoic acid], the “DSLS NBD1/3D Human Stability delta-T (° C.) @ 100 (μM)” value (from here on “DSLS NBD1/3D Human Stability delta-T”) in the assay with NBD1/3D is “B (B: 5-10° C.)”. The “TECC24 @ 10 μM over DMSO (AUC fold over DMSO)” value at CFTR is reported as “B (“B” refers to AUC @10 uM between 4-12)”.

As to `CC(C#N)(c1cccc(CCC(=O)O)c1)c1c[nH]c(-c2cc(Oc3c(F)cc4[nH]ccc4c3CC(F)(F)F)ccc2F)n1` (centres unmarked) [Example 52, 3-(3-(1-cyano-1-(2-(2-fluoro-5-((6-fluoro-4-(2,2,2-trifluoroethyl)-1H-indol-5-yl)oxy)phenyl)-1H-imidazol-4-yl)ethyl)phenyl)propanoic acid], the “DSLS NBD1/3D Human Stability delta-T” value in the assay on NBD1/3D is listed as “B (B: 5-10° C.)”. In addition, the “TECC24 @ 10 μM over DMSO (AUC fold over DMSO)” value on CFTR was “B (“B” refers to AUC @10 uM between 4-12)”.

Regarding `CC(c1c[nH]c(-c2cc(Oc3c(F)cc4[nH]ccc4c3CC(F)F)ccc2F)n1)c1cccc(CCC(=O)O)c1F` (single isomer, unassigned) [Example 129A, 3-(3-(1-(2-(5-((4-(2,2-difluoroethyl)-6-fluoro-1H-indol-5-yl)oxy)-2-fluorophenyl)-1H-imidazol-4-yl)ethyl)-2-fluorophenyl)propanoic acid], the “DSLS NBD1/3D Human Stability delta-T” value in the assay on NBD1/3D is “A (A: T ≥ 10° C.)”. Also, the “TECC24 @ 10 μM over DMSO (AUC fold over DMSO)” value at CFTR is “A (“A” refers to AUC @10 uM >= 12)”.

Turning to `O=C(O)CCc1cccc(C(O)(c2cnc(-c3cc(Oc4c(F)cc5[nH]ccc5c4F)ccc3F)[nH]2)C(F)(F)F)c1` (centres unmarked) [Example 273, 3-(3-(1-(2-(5-((4,6-difluoro-1H-indol-5-yl)oxy)-2-fluorophenyl)-1H-imidazol-5-yl)-2,2,2-trifluoro-1-hydroxyethyl)phenyl)propanoic acid], in the assay with NBD1/3D, the “DSLS NBD1/3D Human Stability delta-T” value was “B (B: 5-10° C.)”. Further, the “TECC24 @ 10 μM over DMSO (AUC fold over DMSO)” value on CFTR is listed as “C (“C” refers to AUC @ 10 uM <= 4)”.

As for `O=C(O)CCc1cccc(Cc2cnc(-c3cc(Oc4c(F)c(F)c5[nH]ccc5c4F)ccc3F)[nH]2)c1F` [Example 121, 3-(2-fluoro-3-((2-(2-fluoro-5-((4,6,7-trifluoro-1H-indol-5-yl)oxy)phenyl)-1H-imidazol-5-yl)methyl)phenyl)propanoic acid], the “DSLS NBD1/3D Human Stability delta-T” value in the assay with NBD1/3D was “B (B: 5-10° C.)”. The “TECC24 @ 10 μM over DMSO (AUC fold over DMSO)” value on CFTR was “A (“A” refers to AUC @10 uM >= 12)”.

In the case of `Cc1c(Oc2ccc(F)c(-c3ncc(Cc4cccc(CCC(=O)O)c4F)[nH]3)c2)c(F)cc2[nH]ccc12` [Example 119, 3-(2-fluoro-3-((2-(2-fluoro-5-((6-fluoro-4-methyl-1H-indol-5-yl)oxy)phenyl)-1H-imidazol-5-yl)methyl)phenyl)propanoic acid], the “DSLS NBD1/3D Human Stability delta-T” value in the assay with NBD1/3D is “B (B: 5-10° C.)”. In addition, the “TECC24 @ 10 μM over DMSO (AUC fold over DMSO)” value at CFTR is given as “C (“C” refers to AUC @ 10 uM <= 4)”.

On to `CC(O)(c1cccc(CCC(=O)O)c1)c1cnc(-c2cc(Oc3c(F)c(F)c4[nH]ccc4c3C3CC3)ccc2F)[nH]1` (centres unmarked) [Example 205, 3-(3-(1-(2-(5-((4-cyclopropyl-6,7-difluoro-1H-indol-5-yl)oxy)-2-fluorophenyl)-1H-imidazol-5-yl)-1-hydroxyethyl)phenyl) propanoic acid], for which, in the assay with NBD1/3D, the “DSLS NBD1/3D Human Stability delta-T” value is “B (B: 5-10° C.)”. Also, the “TECC24 @ 10 μM over DMSO (AUC fold over DMSO)” value on CFTR is given as “B (“B” refers to AUC @10 uM between 4-12)”.

On to `O=C(O)CCc1cccc(C2(c3cnc(-c4cc(Oc5c(F)cc6[nH]ccc6c5F)ccc4F)[nH]3)CCN(CC(F)(F)F)CC2)c1` [Example 169, 3-(3-(4-(2-(5-((4,6-difluoro-1H-indol-5-yl)oxy)-2-fluorophenyl)-1H-imidazol-5-yl)-1-(2,2,2-trifluoroethyl)piperidin-4-yl)phenyl)propanoic acid], for which the “DSLS NBD1/3D Human Stability delta-T” value in the assay on NBD1/3D is listed as “B (B: 5-10° C.)”. Besides, on CFTR, the “TECC24 @ 10 μM over DMSO (AUC fold over DMSO)” value is recorded as “C (“C” refers to AUC @ 10 uM <= 4)”.

As to `CS(=O)(=O)Cc1c(Oc2ccc(F)c(-c3ncc(Cc4cccc(CCC(=O)O)c4F)[nH]3)c2)c(F)cc2[nH]ccc12` [Example 279, 3-(2-Fluoro-3-((2-(2-fluoro-5-((6-fluoro-4-((methylsulfonyl)methyl)-1H-indol-5-yl)oxy)phenyl)-1H-imidazol-5-yl)methyl)phenyl)propanoic acid], in the assay with NBD1/3D, the “DSLS NBD1/3D Human Stability delta-T” value was “A (A: T ≥ 10° C.)”. Moreover, the “TECC24 @ 10 μM over DMSO (AUC fold over DMSO)” value at CFTR is recorded as “A (“A” refers to AUC @10 uM >= 12)”.

Take `CC(c1cnc(-c2cc(Oc3c(F)cc4[nH]ccc4c3F)ccc2F)[nH]1)c1cc(F)cc(CCC(=O)O)c1F` (single isomer, unassigned) [Example 132B, 3-(3-(1-(2-(5-((4,6-difluoro-1H-indol-5-yl)oxy)-2-fluorophenyl)-1H-imidazol-5-yl)ethyl)-2,5-difluorophenyl)propanoic acid]: the “DSLS NBD1/3D Human Stability delta-T” value with NBD1/3D is reported as “A (A: T ≥ 10° C.)”. The “TECC24 @ 10 μM over DMSO (AUC fold over DMSO)” value on CFTR was “A (“A” refers to AUC @10 uM >= 12)”.

Regarding `O=C(O)CCc1cccc(C2(c3cnc(-c4cc(Oc5c(F)cc6[nH]ccc6c5CC(F)(F)F)ccc4F)[nH]3)CCS(=O)(=O)CC2)c1` [Example 170, 3-(3-(4-(2-(2-fluoro-5-((6-fluoro-4-(2,2,2-trifluoroethyl)-1H-indol-5-yl)oxy)phenyl)-1H-imidazol-5-yl)-1,1-dioxidotetrahydro-2H-thiopyran-4-yl)phenyl)propanoic acid], in the assay with NBD1/3D, the “DSLS NBD1/3D Human Stability delta-T” value is “B (B: 5-10° C.)”. The “TECC24 @ 10 μM over DMSO (AUC fold over DMSO)” value on CFTR was “C (“C” refers to AUC @ 10 uM <= 4)”.

With `Cc1c(Oc2ccc(F)c(-c3nc(C(C)(O)c4cc(F)cc(CCC(=O)O)c4)c[nH]3)c2)c(F)cc2[nH]ccc12` (centres unmarked) [Example 192, 3-(3-fluoro-5-(1-(2-(2-fluoro-5-((6-fluoro-4-methyl-1H-indol-5-yl)oxy)phenyl)-1H-imidazol-4-yl)-1-hydroxyethyl)phenyl) propanoic acid], the “DSLS NBD1/3D Human Stability delta-T” value with NBD1/3D is “B (B: 5-10° C.)”.

`CC(O)(c1cccc([C@@H]2C[C@H]2C(=O)O)c1)c1c[nH]c(-c2cccc(Oc3c(F)cc4[nH]ccc4c3F)c2)n1` (mixture of isomers) [Example 184, rac-(1r,2r)-2-(3-(1-(2-(3-((4,6-Difluoro-1H-indol-5-yl)oxy)phenyl)-1H-imidazol-4-yl)-1-hydroxyethyl)phenyl)cyclopropane-1-carboxylic acid]: in the assay on NBD1/3D, the “DSLS NBD1/3D Human Stability delta-T” value was “B (B: 5-10° C.)”.

For the compound `Cc1c(Oc2ccc(F)c(-c3nc(C(C)(O)c4cc(Cl)cc(CCC(=O)O)c4)c[nH]3)c2)c(F)cc2[nH]ccc12` (centres unmarked) [Example 189, 3-(3-chloro-5-(1-(2-(2-fluoro-5-((6-fluoro-4-methyl-1H-indol-5-yl)oxy)phenyl)-1H-imidazol-4-yl)-1-hydroxyethyl)phenyl) propanoic acid], the “DSLS NBD1/3D Human Stability delta-T” value in the assay with NBD1/3D was “B (B: 5-10° C.)”.

Regarding `CC(O)(c1cccc(CCC(=O)O)c1)c1cnc(-c2cc(Oc3cc(F)c4[nH]ccc4c3)ccc2F)[nH]1` (centres unmarked) [Example 196, 3-(3-(1-(2-(2-fluoro-5-((7-fluoro-1H-indol-5-yl)oxy)phenyl)-1H-imidazol-5-yl)-1-hydroxyethyl)phenyl) propanoic acid], the “DSLS NBD1/3D Human Stability delta-T” value with NBD1/3D is on record as “B (B: 5-10° C.)”.
